{"source": "patent US9055741B2", "about": "“Contacting crop plants with compositions” (Rohm and Haas Company, priority 2006, dated 2015)", "type_in_all_cases": "in vivo", "key": {"[1]": {"tested_on": "Golden Delicious apple trees", "assay": "Golden Delicious fruit drop after pre-harvest spray", "conditions": "NAA 20 ppm, AVG 125 ppm, Powder 1 375 g AI/ha", "method": "(§1) Spray tank was filled with approximately two-thirds of the total volume of water required. The amount of Powder 1 or Powder 2 was weighed according to the rate and total volume of spray being prepared. The appropriate amount of was calculated to give 1% v/v of total spray volume. Adjuvant 1 was added to the spray tank, which was agitated until the mixture turned milky white. Powder 1 or Powder 2 was added to the spray container, which was then gently (not vigorously) agitated. The remaining water was added, making sure all of the powder was wet and washed off of the sides of the tank (if any had deposited there). The spray tank was then swirled or stirred for at least two minutes (2-5 minutes) to ensure good mixing. Between 5 and 60 minutes thereafter, plants were sprayed with the mixture.\n(§2) Flat fan nozzles were used, producing droplet size of 100 to 500 micrometers. Spray rate of mixture was 500 liter per hectare. Backpack sprayer was used. Spraying was performed before 10:00 am.\nUsing methods similar to those of Example 1, Golden Delicious apple trees were sprayed one week before the apples would normally be harvested for commercial use. The apples were left on the trees to observe postharvest drop. The spray containing Powder 1 was used to give 375 gram of AI per hectare. NAA was used at 20 ppm, and AVG was used at 125 ppm. […]"}, "fusarium disease": {"tested_on": "fusarium disease", "assay": "Wheat field treatment: damage from fusarium disease", "conditions": "untreated 6", "method": "as §1, §2\n(§3) Using methods similar to those of Example 1, wheat was sprayed at stage F10.5. Frost damage was assessed by examining the portion of the seed head damaged; the percentage of barren husks is reported. Damage from fusarium disease was assessed as a percentage of seed heads damaged by the disease organism."}, "cotton": {"tested_on": "cotton", "assay": "Cotton field treatment: lint yield", "conditions": "UTC 228.0, Adjuvant 1 only 245.1", "method": "as §1, §2\nUsing methods similar to those of Example 1, cotton was also tested. Each treated group of plants was treated either two or three times, as follows:\nThe crop yield was assessed as the weight of lint per hectare. Treatment types, treatment amounts (grams of AI per hectare), and results were as follows. Many of the treatments lead to improvements in the yield of lint."}, "Soybean plants": {"tested_on": "Soybean plants", "assay": "Soybean crop yield and protein content", "conditions": "for Protein %: untreated 36.93/36.87; for Yield: untreated 3607.20/3687.67", "method": "as §1, §2\nSoybean plants were treated using methods similar to those of Example 1. Treatment was performed when the plants were at one or more of the following growth stages: R2, R3, and R5.5."}, "wheat": {"tested_on": "wheat", "assay": "Wheat field treatment: yield and frost damage", "conditions": "for Frost Damage (percentage of barren husks): untreated 21; for Yield: untreated 3890", "method": "as §1, §2, §3"}, "Fuji apple trees": {"tested_on": "Fuji apple trees", "assay": "Fuji apples: staining after harvest and storage", "conditions": "250 ppm, approximately 211 g/ha (520 g/acre) each, Untreated 12", "from_the_text": "Fuji apple trees were sprayed prior to harvest either one or two times, with spray containing 250 ppm of 1-MCP. Each spraying provided treatment of approximately 211 g/ha ([…]). After harvesting and storage, the apples were inspected for staining."}, "[2]": {"conditions": "1 g/ha, timing R2, R3, and R5.5"}, "[3]": {"conditions": "10 g/ha, timing R2, R3, and R5.5"}, "[4]": {"conditions": "30 g/ha, timing R2, R3, and R5.5"}, "[5]": {"conditions": "dosage Exaggerated 1, every 2 weeks"}, "[6]": {"conditions": "dosage Exaggerated 2, every 2 weeks"}}, "data": [{"smiles": "O=C(O)Cc1cccc2ccccc12", "note": "[NAA, 1-naphthaleneacetic acid]", "values": [{"measurement": "number of dropped fruit per tree", "setting": "[1]; day 0 after treatment, UTC 0", "value": 0}, {"measurement": "number of dropped fruit per tree", "setting": "[1]; day 7 after treatment, UTC 18", "value": 5}, {"measurement": "number of dropped fruit per tree", "setting": "[1]; day 21 after treatment, UTC 45", "value": 20}, {"measurement": "number of dropped fruit per tree", "setting": "[1]; day 28 after treatment, UTC 115", "value": 65}, {"measurement": "number of dropped fruit per tree", "setting": "[1]; day 35 after treatment, UTC 195", "value": 118}, {"measurement": "number of dropped fruit per tree", "setting": "[1]; day 62 after treatment, UTC 30", "value": 11}]}, {"smiles": "CC1=CC1", "note": "[1-MCP, 1-methylcyclopropene]", "values": [{"measurement": "Disease Damage (percentage of seed heads damaged)", "setting": "fusarium disease; 10 g/ha AI at stage F10.5", "value": 0.5, "unit": "%"}, {"measurement": "Disease Damage (percentage of seed heads damaged)", "setting": "fusarium disease; 25 g/ha AI at stage F10.5", "value": 3, "unit": "%"}, {"measurement": "Lint", "setting": "cotton; 250 g/ha AI, type EB 2", "value": 245.3, "unit": "kg/ha"}, {"measurement": "Lint", "setting": "cotton; 250 g/ha AI, type EB 3", "value": 250.2, "unit": "kg/ha"}, {"measurement": "Lint", "setting": "cotton; 250 g/ha AI, type PHS 2", "value": 230.6, "unit": "kg/ha"}, {"measurement": "Lint", "setting": "cotton; 250 g/ha AI, type PHS 3", "value": 231.8, "unit": "kg/ha"}, {"measurement": "Lint", "setting": "cotton; 500 g/ha AI, type EB 2", "value": 234.2, "unit": "kg/ha"}, {"measurement": "Lint", "setting": "cotton; 500 g/ha AI, type EB 3", "value": 261.3, "unit": "kg/ha"}, {"measurement": "Lint", "setting": "cotton; 500 g/ha AI, type PHS 2", "value": 257.6, "unit": "kg/ha"}, {"measurement": "Lint", "setting": "cotton; 500 g/ha AI, type PHS 3", "value": 262.0, "unit": "kg/ha"}, {"measurement": "Lint", "setting": "cotton; 1250 g/ha AI, type EB 2", "value": 235.0, "unit": "kg/ha"}, {"measurement": "Lint", "setting": "cotton; 1250 g/ha AI, type EB 3", "value": 260.7, "unit": "kg/ha"}, {"measurement": "Lint", "setting": "cotton; 1250 g/ha AI, type PHS 2", "value": 253.9, "unit": "kg/ha"}, {"measurement": "Lint", "setting": "cotton; 1250 g/ha AI, type PHS 3", "value": 241.4, "unit": "kg/ha"}, {"measurement": "Protein %", "setting": "Soybean plants; [2]", "value": 38.4, "unit": "%"}, {"measurement": "Yield", "setting": "Soybean plants; [2]", "value": 3955.68, "unit": "kg/ha"}, {"measurement": "Protein %", "setting": "Soybean plants; 1 g/ha, timing R2", "value": 37.88, "unit": "%"}, {"measurement": "Yield", "setting": "Soybean plants; 1 g/ha, timing R2", "value": 3691.44, "unit": "kg/ha"}, {"measurement": "Protein %", "setting": "Soybean plants; 1 g/ha, timing R2 and R3", "value": 37.85, "unit": "%"}, {"measurement": "Yield", "setting": "Soybean plants; 1 g/ha, timing R2 and R3", "value": 3786.48, "unit": "kg/ha"}, {"measurement": "Protein %", "setting": "Soybean plants; 1 g/ha, timing R2 and R5.5", "value": 38.45, "unit": "%"}, {"measurement": "Yield", "setting": "Soybean plants; 1 g/ha, timing R2 and R5.5", "value": 3704.04, "unit": "kg/ha"}, {"measurement": "Protein %", "setting": "Soybean plants; 1 g/ha, timing R3", "value": 37.89, "unit": "%"}, {"measurement": "Yield", "setting": "Soybean plants; 1 g/ha, timing R3", "value": 3795.48, "unit": "kg/ha"}, {"measurement": "Protein %", "setting": "Soybean plants; 1 g/ha, timing R3 and R5.5", "value": 38.75, "unit": "%"}, {"measurement": "Yield", "setting": "Soybean plants; 1 g/ha, timing R3 and R5.5", "value": 3763.80, "unit": "kg/ha"}, {"measurement": "Protein %", "setting": "Soybean plants; 1 g/ha, timing R5.5", "value": 38.25, "unit": "%"}, {"measurement": "Yield", "setting": "Soybean plants; 1 g/ha, timing R5.5", "value": 3659.76, "unit": "kg/ha"}, {"measurement": "Protein %", "setting": "Soybean plants; [3]", "value": 37.87, "unit": "%"}, {"measurement": "Yield", "setting": "Soybean plants; [3]", "value": 4119.48, "unit": "kg/ha"}, {"measurement": "Protein %", "setting": "Soybean plants; 10 g/ha, timing R2", "value": 37.67, "unit": "%"}, {"measurement": "Yield", "setting": "Soybean plants; 10 g/ha, timing R2", "value": 3671.64, "unit": "kg/ha"}, {"measurement": "Protein %", "setting": "Soybean plants; 10 g/ha, timing R2 and R3", "value": 38.27, "unit": "%"}, {"measurement": "Yield", "setting": "Soybean plants; 10 g/ha, timing R2 and R3", "value": 3872.84, "unit": "kg/ha"}, {"measurement": "Protein %", "setting": "Soybean plants; 10 g/ha, timing R2 and R5.5", "value": 38.63, "unit": "%"}, {"measurement": "Yield", "setting": "Soybean plants; 10 g/ha, timing R2 and R5.5", "value": 3817.80, "unit": "kg/ha"}, {"measurement": "Protein %", "setting": "Soybean plants; 10 g/ha, timing R3", "value": 38.64, "unit": "%"}, {"measurement": "Yield", "setting": "Soybean plants; 10 g/ha, timing R3", "value": 3757.68, "unit": "kg/ha"}, {"measurement": "Protein %", "setting": "Soybean plants; 10 g/ha, timing R3 and R5.5", "value": 38.3, "unit": "%"}, {"measurement": "Yield", "setting": "Soybean plants; 10 g/ha, timing R3 and R5.5", "value": 3791.52, "unit": "kg/ha"}, {"measurement": "Protein %", "setting": "Soybean plants; 10 g/ha, timing R5.5", "value": 38.32, "unit": "%"}, {"measurement": "Yield", "setting": "Soybean plants; 10 g/ha, timing R5.5", "value": 3721.32, "unit": "kg/ha"}, {"measurement": "Protein %", "setting": "Soybean plants; [4]", "value": 37.48, "unit": "%"}, {"measurement": "Yield", "setting": "Soybean plants; [4]", "value": 4347.00, "unit": "kg/ha"}, {"measurement": "Protein %", "setting": "Soybean plants; 30 g/ha, timing R2", "value": 38.08, "unit": "%"}, {"measurement": "Yield", "setting": "Soybean plants; 30 g/ha, timing R2", "value": 3702.24, "unit": "kg/ha"}, {"measurement": "Protein %", "setting": "Soybean plants; 30 g/ha, timing R2 and R3", "value": 36.73, "unit": "%"}, {"measurement": "Yield", "setting": "Soybean plants; 30 g/ha, timing R2 and R3", "value": 4118.76, "unit": "kg/ha"}, {"measurement": "Protein %", "setting": "Soybean plants; 30 g/ha, timing R2 and R5.5", "value": 38.56, "unit": "%"}, {"measurement": "Yield", "setting": "Soybean plants; 30 g/ha, timing R2 and R5.5", "value": 3844.44, "unit": "kg/ha"}, {"measurement": "Protein %", "setting": "Soybean plants; 30 g/ha, timing R3", "value": 38.33, "unit": "%"}, {"measurement": "Yield", "setting": "Soybean plants; 30 g/ha, timing R3", "value": 3747.24, "unit": "kg/ha"}, {"measurement": "Protein %", "setting": "Soybean plants; 30 g/ha, timing R3 and R5.5", "value": 37.87, "unit": "%"}, {"measurement": "Yield", "setting": "Soybean plants; 30 g/ha, timing R3 and R5.5", "value": 3946.68, "unit": "kg/ha"}, {"measurement": "Protein %", "setting": "Soybean plants; 30 g/ha, timing R5.5", "value": 37.58, "unit": "%"}, {"measurement": "Yield", "setting": "Soybean plants; 30 g/ha, timing R5.5", "value": 3817.80, "unit": "kg/ha"}, {"measurement": "Protein %", "setting": "Soybean plants; [5]", "value": 38.62, "unit": "%"}, {"measurement": "Yield", "setting": "Soybean plants; [5]", "value": 3923.64, "unit": "kg/ha"}, {"measurement": "Protein %", "setting": "Soybean plants; [6]", "value": 37.89, "unit": "%"}, {"measurement": "Yield", "setting": "Soybean plants; [6]", "value": 4167.00, "unit": "kg/ha"}, {"measurement": "Frost Damage (percentage of barren husks)", "setting": "wheat; 10 g/ha AI at stage F10.5", "value": 6, "unit": "%"}, {"measurement": "Yield", "setting": "wheat; 10 g/ha AI at stage F10.5", "value": 4458, "unit": "kg dry weight/ha"}, {"measurement": "Frost Damage (percentage of barren husks)", "setting": "wheat; 25 g/ha AI at stage F10.5", "value": 3, "unit": "%"}, {"measurement": "Yield", "setting": "wheat; 25 g/ha AI at stage F10.5", "value": 4522, "unit": "kg dry weight/ha"}, {"measurement": "% Staining", "setting": "Fuji apple trees; 1 spray application", "value": 8.5, "unit": "%"}, {"measurement": "% Staining", "setting": "Fuji apple trees; 2 spray applications", "value": 3, "unit": "%"}]}]}
